# Results as given in patent EP2519243B1, “COMPOSITIONS AND METHODS FOR TREATING HEPATITIS B VIRUS INFECTION” (priority 2009, dated 2011).
# Where two headings read alike, the source gives them in different places.
# What was measured:
# HBV [1] = assay: Viral dynamic analyses of serum HBV DNA under lamivudine therapy (model fit and simulation); design: species or system human; conditions: estimate (standard error)
# Source text: The HBV DNA data used in the unique assessments disclosed herein of HBV viral dynamics under lamivudine therapy were obtained from the previously published lamivudine dose-response curves (FIG. 1). […] Therefore, for the viral dynamic analyses, only data up to day 15 were used.
# The digitalized data were converted to percent change from baseline as (Vt-V0)/V0 and further presented as Vt/V0, where V0 and Vt are the HBV DNA data at baseline and at time t after treatment initiation, respectively. The viral dynamic model as illustrated below was fitted to the Vt/V0 vs. time data: Vt /V0 = [(ε*u-a)/(u-a)]*exp(-u*t) + [(1-ε)*u/(u-a)]*exp(-a*t) [formula] where u is the clearance rate constant of free virions; a is the clearance rate constant of infected cells; ε is the inhibition efficacy.
# Table 3. Exemplary viral dynamic parameter estimates (standard error) of lamivudine
# These analyses are illustrated in FIG. 2.
# Table 4. Examples of model predicted HBV DNA reduction from baseline on long10 scale (% change)
# HBV [2] = assay: Emax modeling of predicted day 29 HBV DNA reduction versus lamivudine dose; design: species or system human; conditions: Emax model estimate (standard error); Emax fixed to 4; day 29 predicted data
# Source text: The predicted HBV DNA reduction data on day 29 were used for Emax modeling analyses for the purpose of defining optimal doses of lamivudine.
# An Emax model in the form of E = Emax *ED50^h /(D^h+ED50^h) [formula] where E and Emax are the viral response with dose D and maximum viral response respectively; ED50 is the dose resulting in 50% of viral response; h is the Hill parameter. The maximum reduction of HBV NDA at 4 weeks achievable by a nucleoside/nucleotide antiviral is approximately 4 log10. (Buti et al. J. Hepatol. 39: S139-S142, 2003.) Therefore, in the Emax modeling herein, Emax was fixed to 4.
# Using these estimates, viral responses at untested doses were predicted and results are illustrated in FIG. 3 and presented in Table 5.
# HBV [3] = conditions: day 29, 100 mg/day dose; no additional benefits with 300 mg or 600 mg; cited from earlier work
# HBV [4] = conditions: cited from earlier work; for cumulative rate of resistance: in 5 years
# [5] = cited from earlier work
Structure (SMILES),e (inhibition efficacy) (HBV [1]; lamivudine 5 mg/day),e (inhibition efficacy) (HBV [1]; lamivudine 20 mg/day),e (inhibition efficacy) (HBV [1]; lamivudine 100 mg/day),e (inhibition efficacy) (HBV [1]; lamivudine 300 mg/day),e (inhibition efficacy) (HBV [1]; lamivudine 600 mg/day),ED50 (dose resulting in 50% of viral response) (HBV [2]),"maximal observed viral suppression (median, from baseline) (HBV [3])",cumulative rate of resistance (HBV [4]; HBeAg negative patients),cumulative rate of resistance (HBV [4]; HBeAg positive patients),5-year resistance rate (HBV [4]; monotherapy),"cumulative rate of nephrotoxicity ([5]; 10 mg per day, 4-5 years, patients with compensated liver disease)","adefovir-associated nephrotoxicity (patients) ([5]; decompensated liver disease and liver transplantation, treatment periods of 39-99 weeks)"
"Nc1ccn([C@@H]2CS[C@H](CO)O2)c(=O)n1 (relative stereo) [lamivudine, (2R,cis)-4-amino-1-(2-hydroxymethyl-1,3-oxathiolan-5-yl)-(1H)-pyrimidin-2-one]",0.6193 (0.0369),0.8186 (0.0374),0.8173 (0.0254),0.8463 (0.0087),0.8673 (0.0248),101.5 (29.04) mg,≥ 98%,,,,,
"CC(C)(C)C(=O)OCOP(=O)(COCCn1cnc2c(N)ncnc21)OCOC(=O)C(C)(C)C [adefovir dipivoxil, 9-[2-[[bis[(pivaloyloxy)methoxy]-phosphinyl]-methoxy]ethyl]adenine]",,,,,,,,29%,about 20%,20-30%,3%,up to 47%
